# Test results published in PubChem BioAssay (NCI).
#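 The compound was tested at five concentrations on cells cultured in 96-well plates, with a 48-hour exposure period. TGI: total growth inhibition.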
# Key:
# Test in all cases: NCI-60 cell line screen, 48 h
# SR leukemia = test system: SR leukemia
# HOP-62 NSCLC = test system: HOP-62 NSCLC
# KM12 colon = test system: KM12 colon
# NCI-H460 lung = test system: NCI-H460 lung
# HOP-18 NSCLC = test system: HOP-18 NSCLC
# NCI-H226 lung = test system: NCI-H226 lung
# TK-10 renal = test system: TK-10 renal
# M19-MEL melanoma = test system: M19-MEL melanoma
# SN12C renal = test system: SN12C renal
# DMS 114 small cell lung = test system: DMS 114 small cell lung
# LXFL 529 NSCLC = test system: LXFL 529 NSCLC
# IGROV1 ovarian = test system: IGROV1 ovarian
# DLD-1 colon = test system: DLD-1 colon
# LOX IMVI melanoma = test system: LOX IMVI melanoma
SMILES,TGI (SR leukemia),TGI (HOP-62 NSCLC),TGI (KM12 colon),TGI (NCI-H460 lung),TGI (HOP-18 NSCLC),TGI (NCI-H226 lung),TGI (TK-10 renal),TGI (M19-MEL melanoma),TGI (SN12C renal),TGI (DMS 114 small cell lung),TGI (LXFL 529 NSCLC),TGI (IGROV1 ovarian),TGI (DLD-1 colon),TGI (LOX IMVI melanoma)
COC(=O)[C@@]12OC[C@]34C([C@@H](O)C1O)[C@@]1(C)CC(=O)C(OC(=O)CC(C)C(F)(F)F)=C(C)C1C[C@H]3OC(=O)[C@H](O)[C@H]42 (some centres undefined),19.9 µM,> 62.5 µM,> 62.5 µM,> 62.5 µM,29.2 µM,14.5 µM,> 62.5 µM,6.25 µM,21.2 µM,18.5 µM,> 62.5 µM,45.5 µM,,
O=C1c2ccccc2N2OC3(N4CCOCC4)CCCC3C12c1ccccc1 (centres undefined),> 100 µM,> 100 µM,,,> 100 µM,> 100 µM,,> 100 µM,> 100 µM,> 100 µM,> 100 µM,> 100 µM,> 100 µM,
C1CSCCSCCCS[C@@H]2CCCCC2SC1 (some centres undefined),,> 100 µM,> 100 µM,> 100 µM,> 100 µM,> 100 µM,> 100 µM,> 100 µM,> 100 µM,65.4 µM,> 100 µM,> 100 µM,> 100 µM,> 100 µM
CC(C)(CN1CCCCC1)C(=O)/C=C/c1ccc(Br)cc1,7.68 µM,9.82 µM,11.9 µM,> 20.4 µM,6.83 µM,15.7 µM,10.2 µM,> 51.8 µM,7.66 µM,3.44 µM,3.52 µM,6.48 µM,10.3 µM,4.63 µM
O=C(NCCN(CCNC(=O)c1cccc(O)c1O)CCNC(=O)c1cccc(O)c1O)c1cccc(O)c1O,> 34.2 µM,> 91.6 µM,> 100 µM,> 51.6 µM,,85.6 µM,> 100 µM,,> 100 µM,,,> 72.4 µM,,> 51.5 µM
Cc1c(C)c2c(c(N)c1C#N)C(=O)N(Cc1ccc(S(N)(=O)=O)cc1)C2=O,> 100 µM,19.3 µM,> 100 µM,> 100 µM,,> 62.9 µM,99.7 µM,,> 100 µM,,,> 59.7 µM,,> 100 µM
COC(=O)/C=C(\C(=O)OC)c1cc(C)c2cc(C(C)C)ccc(C)c1-2,> 100 µM,> 100 µM,> 100 µM,> 100 µM,,> 100 µM,> 100 µM,,> 100 µM,,,> 100 µM,,> 100 µM
CCN(CC)CCNc1ccc([N+](=O)[O-])c2nc3ccc(OC)cc3c(NCCN(CC)CC)c12,0.609 µM,3.75 µM,3.6 µM,1.41 µM,,3.8 µM,> 8.78 µM,,3.69 µM,,,7.15 µM,,2.43 µM
N#Cc1c(NC(=O)C(F)(F)F)sc2c3c(=O)c4ccccc4c(=O)c=3oc3ccccc3c12,13.5 µM,> 61.9 µM,26 µM,36.5 µM,,21.2 µM,74.6 µM,,55.3 µM,,,48.7 µM,,> 59.1 µM
Cc1nc2c(sc3nc4c(cc32)CCC4)c(=O)o1,> 100 µM,> 100 µM,> 100 µM,> 100 µM,,> 100 µM,> 100 µM,,> 100 µM,,,59.1 µM,,> 100 µM
CCCCCCCCOCC(COC(=O)CCCCCCC)OC(=O)CCCCCCC (centres undefined),> 100 µM,> 100 µM,,> 100 µM,> 100 µM,> 100 µM,> 100 µM,> 100 µM,> 100 µM,> 100 µM,> 100 µM,> 100 µM,> 100 µM,> 100 µM
CN1CCOC(C(NC(=O)c2ccccc2)c2ccccc2)C1=O (centres undefined),> 100 µM,> 100 µM,> 100 µM,> 100 µM,> 100 µM,> 100 µM,> 100 µM,> 100 µM,> 100 µM,,,> 100 µM,> 100 µM,> 100 µM
CN=c1sc2c(n1C)C(=O)c1ccccc1C2=O,8.97 µM,3.39 µM,13.5 µM,8.01 µM,,5.65 µM,35.6 µM,,3.05 µM,,,> 41.6 µM,,10.4 µM
COc1cc2nc(Cl)nc(NS(=O)(=O)c3cc4ccccc4s3)c2cc1OC,60.6 µM,> 100 µM,51.2 µM,> 100 µM,,> 100 µM,> 100 µM,,90.6 µM,,,71.8 µM,,59.5 µM
C1CCC(N=C2N(C3CCCCC3)C(=NC3CCCCC3)N2C2CCCCC2)CC1,> 100 µM,> 100 µM,> 100 µM,> 100 µM,> 100 µM,,> 100 µM,> 100 µM,> 100 µM,> 100 µM,> 100 µM,> 100 µM,> 100 µM,> 100 µM
[B]C(=O)NC(CC(C)C)C(=O)NCC(=O)NC1c2ccsc2C(=O)C1O (centres undefined) (tested in a mixture with another compound),> 100 µM,> 100 µM,> 100 µM,> 31.6 µM,,> 100 µM,> 100 µM,,> 100 µM,,,> 100 µM,,> 100 µM

SMILES,TGI (SR leukemia),TGI (HOP-62 NSCLC),TGI (KM12 colon),TGI (NCI-H460 lung),TGI (HOP-18 NSCLC),TGI (NCI-H226 lung),TGI (TK-10 renal),TGI (M19-MEL melanoma),TGI (SN12C renal),TGI (DMS 114 small cell lung),TGI (LXFL 529 NSCLC),TGI (IGROV1 ovarian),TGI (DLD-1 colon),TGI (LOX IMVI melanoma)
COc1ccc(-c2oc3cc(-c4cc5oc(-c6ccc(OC)cc6)c(-c6ccc(OC)cc6)c5cc4OC)c(OC)cc3c2-c2ccc(OC)cc2)cc1,> 100 µM,> 100 µM,> 100 µM,> 100 µM,,> 100 µM,> 100 µM,,> 100 µM,,,> 100 µM,,> 100 µM
Oc1c(N2CCCCC2)cc(-c2cc(N3CCCCC3)c(O)c3ccccc23)c2ccccc12,16.2 µM,> 100 µM,> 100 µM,> 100 µM,,> 100 µM,> 100 µM,,> 100 µM,,,> 100 µM,,73.2 µM
O=C1CC(c2ccc(Cl)cc2)=Nc2ccccc2N1,> 100 µM,> 100 µM,> 100 µM,> 100 µM,> 100 µM,> 100 µM,> 100 µM,> 100 µM,> 100 µM,> 100 µM,> 100 µM,> 100 µM,> 100 µM,58.8 µM
CCOC(=O)C1S(=O)(=O)OCCOS1(=O)=O,> 100 µM,> 100 µM,> 100 µM,,,,> 100 µM,> 100 µM,> 100 µM,,> 100 µM,> 100 µM,> 100 µM,> 100 µM
O=C(Nn1c(-c2ccccc2)nc2ccccc2c1=O)c1ccc(Cl)cc1,> 100 µM,> 100 µM,> 100 µM,> 100 µM,,> 100 µM,> 100 µM,,> 100 µM,,,> 100 µM,,> 100 µM
CC(=O)c1ccc(Nc2c3c(nc4ccccc24)CCCC3)cc1,74.2 µM,> 47.3 µM,> 36 µM,> 66.8 µM,,> 100 µM,> 100 µM,,> 100 µM,,,23.8 µM,,> 41.4 µM
C=C1CC[C@@H](CCC2CCC3(OC2)O[C@]2(O)CC[C@@]3(C)OC2(C)C)C(C)(C)[C@H]1C/C=C1\CCOC1=O (some centres undefined),> 52.2 µM,> 100 µM,> 60.3 µM,82.7 µM,,35.2 µM,> 93.1 µM,,51.1 µM,,,> 100 µM,,20 µM
CN(NC1=NCCO1)c1ccc2ccccc2c1,> 100 µM,> 100 µM,> 100 µM,> 100 µM,,> 100 µM,> 100 µM,,> 100 µM,,,> 100 µM,,> 100 µM
CC(=O)c1ccc(N=NN2CCCC2)cc1,> 100 µM,> 100 µM,> 100 µM,> 100 µM,,> 100 µM,> 100 µM,,> 100 µM,,,> 100 µM,,> 100 µM
COC(=O)[C@H](Cc1ccccc1)NC(=O)c1ccc(CNC(=O)/C=C/c2csc(-c3ccccc3)n2)cc1,> 21.5 µM,52.5 µM,> 100 µM,42.6 µM,,> 100 µM,45.4 µM,,46.2 µM,,,> 23.2 µM,,> 52.8 µM
CCN(/C=C1/C(=O)C(c2ccccc2)N(c2ccccc2)C1=O)CC (centres undefined),> 10 µM,> 10 µM,> 10 µM,> 10 µM,,> 10 µM,> 10 µM,,> 10 µM,,,> 10 µM,,> 10 µM
Cc1c(C)c(S(=O)(=O)N(CCCCN)OCCCN)c(C)c2c1OC(C)(C)CC2,> 100 µM,32.6 µM,42.8 µM,41.2 µM,,30.1 µM,37.8 µM,,> 100 µM,,,20.2 µM,,40.4 µM
O=c1cc(Nc2cccc(O)c2)[nH]c(=O)[nH]1,> 100 µM,> 100 µM,> 100 µM,> 100 µM,,> 100 µM,> 100 µM,,> 100 µM,,,> 100 µM,,> 100 µM
CCOC(=O)c1c(NC(=O)c2ccccc2)c(C#N)c2n1CCCCC2,> 100 µM,> 100 µM,> 100 µM,> 100 µM,,> 100 µM,> 100 µM,,> 100 µM,,,> 100 µM,,> 100 µM
C[C@@H]1CC[C@]2(C)C3(C)CC[C@]2(OC3=O)[C@@]12CC(c1ccoc1)OC2=O (some centres undefined),81 µM,> 100 µM,> 100 µM,> 100 µM,,> 100 µM,96.7 µM,,95.5 µM,,,64.7 µM,,43.6 µM
